SMILES strings stand for the structures. Entries after “also recorded” stand apart in the source; their conditions may differ.

Holding throughout (format): physicochemical
Data set [1] in a line: Stability to compression (pressure of 1 ton, XRPD). Conditions: Pressure (1 tons), XRPD after 2 minutes. As to the method:
(§1) Sample, after being powdered in a mortar and pestle, is applied directly on a silicon plate holder. The X-ray powder diffraction pattern was measured with Philips X'Pert PRO X-ray powder diffractometer, equipped with Cu irradiation source=1.54184 Å (Ångstrom), X'Celerator (2.022° 2θ) detector. Scanning parameters: angle range: 3-40 deg., step size 0.0167, time per step 37 s, continuous scan. The described peak positions were determined using silicon powder as an internal standard.
A sample of Mavacamten Form 7 was subjected to a pressure of 1 ton (Atlas® Autopress hydraulic press, set to 1 ton). XRPD analysis was performed on the sample after 2 minutes.

The nature of data set [2]: Storage stability at different relative humidities (XRPD analysis). Conditions: high and low relative humidity, ambient temperature. As to the method:
as §1
(§2) Samples of Mavacamten Form 7 were subjected to conditions of different relative humidities at ambient temperature; TGA weight loss analysis was performed on the samples after 7 days, XRPD analysis was performed after 30 days.

Data set [3] is described as follows: Stability experiments, all tested stress conditions (summary). Conditions: strong grinding, pressure of 1 ton, high humidity (up to 100% RH for 30 days), high temperature (up to 100° C.). From the text:
Example 2: Stability Experiments

Data set [4] can be described thus: Thermal stability (heating, XRPD). Conditions: Heating 100° C., 30 minutes. As to the method: as §1
A sample of Mavacamten Form 7 was subjected to heating up to 100° C. for 30 minutes.

Data set [5] in a line: TGA weight loss after storage at different relative humidities (hygroscopicity). Conditions: for TGA weight loss after 7 days (up to 190° C.): ambient temperature. As to the method:
as §2

Data set [6] in a line: Sauna experiments (exposure to solvent vapors, XRPD). As to the method:
as §1
Samples of Mavacamten Form 7 (about 20-30 mg) were exposed for 7 days to vapors of different solvents in a sealed chamber.

The nature of data set [7]: Grinding experiments (strong grinding and solvent drop grinding, XRPD). Conditions: for XRPD analysis results: 2 minutes. As to the method: as §1
Samples of Mavacamten Form 7 were subjected to strong grinding, and to solvent drop grinding in isopropanol, ethanol, ethyl acetate, acetone and water. Grinding was carried out on the samples alone, or in the presence of a solvent. In these experiments, about 20 mg of the sample is placed in a mortar and ground with a pestle for 2 minutes. The solvent, when used, as added to the crystalline material before grinding, in a volume of 10 microliters.

Consider `CC(C)n1c(=O)cc(N[C@@H](C)c2ccccc2)[nH]c1=O` [Mavacamten Form 7, 6-{[(1S)-1-phenylethyl]amino}-3-(propan-2-yl)-1,2,3,4-tetrahydropyrimidine-2,4-dion], for which the XRPD analysis results in data set [1], in data set [6] (Sauna (RT/7 days) (ethanol)), in data set [6] (Sauna (RT/7 days) (ethyl acetate)), in data set [6] (Sauna (RT/7 days) (isopropanol)), in data set [6] (Sauna (RT/7 days) (water)) and in data set [7] (Solvent-drop grinding (acetone)) was “No polymorphic conversion” in each case. The XRPD analysis results in data set [7] (Solvent-drop grinding (ethanol)), in data set [7] (Solvent-drop grinding (ethyl-acetate)), in data set [7] (Solvent-drop grinding (isopropanol)), in data set [7] (Solvent-drop grinding (water)) and in data set [7] (Strong grinding) was “No polymorphic conversion” in each case. In addition, the “Stability at relative humidity conditions” value in data set [2] was “stable at high and low relative humidity conditions”. For the same molecule, the “Stability under tested stress conditions” value in data set [3] is given as “stable under all tested stress conditions”. The “Result (XRPD analysis)” value in data set [4] is “no change in the starting material; also recorded: No polymorphic conversion”. In addition, in data set [5] (as confirmed by TGA, different relative humidities), the Hygroscopicity result was “non-hygroscopic”. In addition, the “TGA weight loss after 7 days (up to 190° C.)” value in data set [5] (relative humidity 20%) was found to be 0.7%; in data set [5] (relative humidity 40%) it was 0.6%; in data set [5] (relative humidity 60%), 0.8%; in data set [5] (relative humidity 80%) it was 0.5%; in data set [5] (relative humidity 100%), 1%. Besides, the “XRPD analysis after the grinding experiment” value in data set [7] (strong grinding and solvent drop grinding in isopropanol, ethanol, ethyl acetate, acetone and water) is “no change in the starting material”.

The values are drawn from patent publication US20250250239A1, “SOLID STATE FORMS OF MAVACAMTEN AND PROCESS FOR PREPARATION THEREOF” (Assia Chemical Industries Ltd., priority 2022, published 2025).
